Legend:
vexp3 mutant = test: Effect of antibiotic treatment on viability; type: cell-based, S. pneumoniae; settings: 10×MIC of vancomycin, in 4 hours
Procedure: Bacterial viability was followed for six hours. (Parent strain, R6 (□), vex3 mutant (◯), and vncS mutant (⋄)).
(§3) The effect of penicillin and vancomycin treatment on the viability was determined by exposing 10 ml cultures in the early exponential phase of growth (OD620nm=0.3, corresponding 5×10^7 cfu/ml) to ten times the MIC of benzylpenicillin or vancomycin, respectively. After various times of exposure, 100 μl portions were removed, serially diluted in C+Y and in the case of penicillin supplemented with 100 units of penicillinase (Sigma), and plated on tryptic-soy agar supplemented with 3% sheep blood (v/v).

[1] = system: loss of function mutants of the ABC transporter and RR/HK; test: Tolerance of loss of function mutants; type: cell-based, S. pneumoniae; settings: growth inhibitory concentrations
Source text: As described in Example 6, using insertion duplication mutagenesis, loss of function mutations were obtained in each of the 3 open reading frames of the ABC transporter and each of the two parts of the RR/HK. […] These parallel phenotypes further implicate these topographically close genes in a common pathway.
Vancomycin is the only antibiotic that maintains efficacy against many strains of highly antibiotic resistant bacteria, such as staphylococci, enterococci and pneumococci. Escape from antibiotic activity of vancomycin has been detected in rare staphylococci and enterococci but not in pneumococci as yet. […] Infect. Dis. J., 12:196-200 (1993); Marton et al., J. Infect. Dis., 163:542-8 (1991); and Bradley et al., Pediatr. Infect. Dis., 14:1037-1041 (1995)]. […] If they created a phenotype which was corrected by exogenous peptide, they may participate in the biological activity of the peptide. For instance, the ABC transporter may transport the peptide and the HK may serve as an extracellular receptor for the peptide which then changes the behavior of the bacteria (i.e., killing) via a RR signal.

RR mutant = test: Phenotypes of the mutants: lysis by penicillin, vancomycin, DOC; type: cell-based, S. pneumoniae
Procedure: (§1) Construction of mutations: Insertion duplication mutagenesis was carried out using PCR to generate gene fragments for homologous recombination proximal to the amino terminus of OrfW1, HK or RR as follows:
(§2) Phenotypes of the mutants: The mutants were assessed for various physiological functions characteristic of pneumococci. This included lysis by penicillin, vancomycin, and the detergent deoxycholate (DOC). Other capabilities tested included ability to undergo natural DNA transformation (Transform) and expression of the LytA protein as assessed by Western blot.

HK mutant = test: as above; type: cell-based, S. pneumoniae
Procedure: as §1, §2

Orf W1 mutant = test: as above; type: cell-based, S. pneumoniae
Procedure: as §1, §2

parent strain R6 = test: Effect of vancomycin treatment on viability; type: cell-based, S. pneumoniae; settings: R6, vancomycin 10×MIC (5 μg/ml), over 4 hours
Procedure: Bacterial viability was followed for six hours.
as §3

[2] = system: strain RNET01 (vncS over-expressed); test: Effect of vancomycin treatment on viability; type: cell-based, S. pneumoniae; settings: RNET01, vancomycin 10×MIC (5 μg/ml), over 4 hours
Procedure: as §3
To address the question if the kinase/phosphatase VncS was indeed directly linked to the major pneumococcal autolytic pathway, VncS was overexpressed from a plasmid in a vncS deficient knockout mutant. […] To establish a possible correlation between over-expression of the vncS gene and cell death RNET01 and R6 were exposed to vancomycin.

mutant SPSJ01 = test: Screen of library of loss of function mutants for antibiotic tolerance; type: cell-based, pneumococcus
Source text: To detect genes that are part of the trigger pathway of the pneumococcal autolysin a library of loss of function mutants has been created, which was screened for antibiotic tolerance [Pearce et al., Mol. Microbiol., 9:1037-1050 (1993)]. […] It is reasonable to assume that this two component system represents the start of the pneumococcal autolytic trigger pathway, functioning as a relay station reacting to cell density signals or the binding of antibiotics to penicillin binding proteins. Similar to the enterococcal histidine kinase VanSB, the pneumococcal VncS works most likely as a kinase/phosphatase (see Example 1, above).

[3] = system: leucine deprived R6 cells; test: Stringent response: lysis after leucine deprivation; type: cell-based, S. pneumoniae; settings: 10×MIC of penicillin or vancomycin, 0.2 mM P27, or combination
Procedure: P27 and the stringent response mechanism: The stringent response is believed to prevent the death pathway. To clarify the relationship of the stringent response to P27 activity, protein synthesis of R6 was inhibited by leucine deprivation and the effect of P27 was monitored (FIG. 19). […] The minimum concentration of penicillin required to cause penicillin dependent autolysis was equal to its MIC ([…]).

clinical isolate A144 = test: Cell viability (CFU/ml) one hour after addition; type: cell-based, pneumococcus; settings: 10×MIC of penicillin, 1×MIC of vancomycin or 0.4 mM peptide
Source text: Tolerance to penicillin occurs in bacteria that fail to trigger autolysins in response to the drug. […] This is a mechanism of resistance to these drugs and is a serious emerging medical problem. […] However, one pneumococcal strain that fails to lyse and dies slowly in response to both penicillin and vancomycin is the clinical isolate A144. This combination of traits makes A144 recalcitrant to therapy. FIG. 8 compares the activity of penicillin, vancomycin, and the peptide having the amino acid sequence of SEQ ID NO:2 against a classical sensitive strain, R6, and the tolerant strain A144. […] In contrast, strain A144 loses only 0.5 logs of viability in the same time period for all three therapies. […] Thereafter the bacteria grew more slowly than untreated controls.

clinical isolate F79 = test: Lysis of tolerant clinical isolate; type: cell-based, pneumococcus; settings: 10×MIC of penicillin and/or 0.5 mM peptide
Procedure: FIGS. 11A-11B show the effects of 10×MIC of penicillin and/or 0.5 mM of the peptide having the amino acid sequence of SEQ ID NO:2 on the lysis of clinical isolate F79 cells (FIG. 11A) and HK mutant VanS cells (FIG. 11B).
F79 is a natural isolate of pneumococcus with mutations in the HK and the ABC transporter genes as determined by SSCP (see Example 11).

In the case of CN[C@H](CC(C)C)C(=O)N[C@H]1C(=O)N[C@@H](CC(N)=O)C(=O)N[C@H]2C(=O)N[C@H]3C(=O)N[C@H](C(=O)N[C@H](C(=O)O)c4cc(O)cc(O)c4-c4cc3ccc4O)[C@H](O)c3ccc(c(Cl)c3)Oc3cc2cc(c3O[C@@H]2O[C@H](CO)[C@@H](O)[C@H](O)[C@H]2O[C@H]2C[C@](C)(N)[C@H](O)[C@H](C)O2)Oc2ccc(cc2Cl)[C@H]1O [vancomycin], the kill (vexp3 mutant) is reported as “less than 2 log”, the “tolerance (lysis and death)” value [1] is reported as “exhibited tolerance” and the “Lysis by” value (RR mutant) is reported as “sensitive”. The “Lysis by” value (HK mutant) was “tolerant”, the “Lysis by” value (Orf W1 mutant) was “tolerant” and the “loss in viability (kill)” value (parent strain R6) was 4 log. For the same molecule, the loss in viability [2] was 1 log, the “death in the presence of antibiotic” value (mutant SPSJ01) was “failed to die” and the “lysis of R6 under leucine deprivation” value [3] was “neither the addition of 10×the MIC of penicillin or vancomycin nor the addition of 0.2 mM P27 resulted in lysis”. For the same molecule, the loss of viability (clinical isolate A144) was 0.5 logs and the “lysis of F79” value (clinical isolate F79) was “tolerant”.

From patent US6630583B1, “Antibiotics and methods of using the same” (priority 1998, dated 2003)
